“Also recorded” adds a separate entry of the source. Counter-ions that a name gives are not always drawn.
Columns and labels:
calcineurin = experiment: Calcineurin phosphatase activity in cerebellar granule neurons after 4 DIV (malachite green colorimetric assay, Test A); assay type: cell-based, Wistar rat; settings: for effect on calcineurin phosphatase activity: CGNs in K25 medium, 10, 100 or 1000 nM for 4 DIV, relative to K25 control (100%); for change of calcineurin inhibition with increasing concentration: CGNs, 4 DIV, 10-1000 nM
Description: According to Test A, phosphatase calcineurin activity is assessed in cerebellar granule neurons (CGNs) using a colorimetric assay kit based on quantification of the green complex formed between malachite green, molybdate and free phosphate released. CGNs are detached from plates, for example by scraping, rinsed in ice-cold tris buffer solution (TBS) and counted. About 10 million cells are lysed in 1 ml of the provided lysis buffer and centrifuged at 150,000×g at 4° C. for 45 min, and the supernatant may be stored at −70° C. until analysis. Prior to calcineurin activity assay, free phosphate and nucleotides are removed from cellular extract by gel filtration. To ensure the complete removal of phosphate, malachite green reagent may be added, which will turn the color green in presence of phosphate. A specific calcineurin substrate is added to phosphate-free cellular extracts and after appropriate incubation period, malachite green reagent is applied. The rapid green color formation from the reaction is measured, for example on a spectrophotometer. The developed color is proportional to the calcineurin phosphatase activity of samples. Absorbance values, read at 620 nm, may thus be transformed to percentage calcineurin activity relative to K25 control treatment (100%). Cerebellar granule cells were dissociated from the cerebellae of 7-day-old Wistar rat pups as described (Kramer et al. 2003, Mol Cell Neurosci 23:325-330). Briefly, the cerebellae were removed, rinsed in HBSS-BSA, minced, digested with 0.025% trypsin and incubated at 37° C. for 15 min. To stop the digestion, DMEM containing 10% fetal calf serum was added; then a single cell suspension was obtained through pipetting up and down the sedimented tissue. Following centrifugation, cells were counted using trypan blue exclusion test in a Burker chamber. This method is based on the ability of viable cells to exclude trypan blue due to their intact cell membranes, leaving them unstained while nonviable cells take up the dye. Cells at 3.2×10^5/cm^2 were seeded in DMEM Hepes modification supplemented with 10% fetal calf serum, 100 μg/ml pyruvate, and 100 μg/ml gentamicin on Polystyrene 12-well tissue culture plates (CELLSTAR) coated with poly-L-lysine. After 24 h, 10 μM cytosine arabinofuranoside was added to inhibit the growth of non-neuronal cells. All pharmacological interventions begun at this time in the culture medium containing 25 mM KCl (K25), which caused depolarization of granule cells and consequently activated gene expression machinery. Moreover, the viability of granule neurons was higher in this milieu and therefore provides the possibility to maintain cells for several days. Indeed, 25 mM KCl is required in the medium for CGN cultures to maintain adequate calcineurin activity and cell maturation and depolarization (Kramer et al., 2003, Mol Cell Neurosci 23:325-330; Vallano et al. 2006, Neuropharmacology 50: 651-660). Cultures received simple medium (K25 control) or medium containing a setron compound in HCl salt form (Tocris Bioscience, Bristol, UK) at concentrations of 10 nM, 100 nM or 1000 nM for 4 days in vitro (DIV). Phosphatase calcineurin activity was assessed in CGNs using a colorimetric assay kit based on quantification of the green complex formed between malachite green, molybdate and free phosphate released. CGNs were detached from plates by scraping, rinsed in ice-cold tris buffer solution (TBS) and counted. About 10 million cells are lysed in 1 ml of the provided lysis buffer and centrifuged at 150,000×g at 4° C. for 45 min, and the supernatant was stored at −70° C. until analysis. Prior to calcineurin activity assay, free phosphate and nucleotides were removed from cellular extract by gel filtration. To ensure the complete removal of phosphate, malachite green reagent was added, which will turn the color green in presence of phosphate. […]

[1] = system: acoustic trauma induced hearing loss; experiment: Auditory brainstem response (ABR) thresholds after acoustic trauma; assay type: in vivo, Wistar rats; settings: for hearing outcomes (ABR thresholds and DPOAE amplitudes) at 14 days after acoustic trauma compared to placebo / ABR threshold recovery from 24 h to day 14 compared to placebo: i.p. daily for 14 days after acoustic trauma, same doses as E4; for ABR threshold shift from baseline to day 14 compared to placebo: i.p. daily for 14 days from immediately after 121 dB trauma, azasetron HCl 4.22, ondansetron HCl 4, tropisetron HCl 3.5, granisetron HCl 3.8, Tacrolimus 1.5 mg/kg
Description: (§1) All experiments were performed using 7 week old male Wistar rats (CERJ, Le Genest, France) in accordance with the French Ministry of Agriculture regulations and European Community Council Directive no. 86/609/EEC, OJL 358. The rats were fed a standard diet ad libitum and maintained on a 12 h light-dark cycle.
(§2) Auditory Brainstem Reponses (ABR) and Distortion Product Otoacoustic Emissions (DPOAE) were recording using a RZ6 Auditory Workstation (Tucker-Davis Technologies, Alachua, FL, USA) with animals deeply anesthetized using 90 mg/kg ketamine and 10 mg/kg xylazine and placed on a 35° C. recirculating heating pad inside a sound attenuating cubicle (Med Associates Inc., St. Albans, VT, USA) throughout the experiment.
For ABR recordings, three stainless steel needle electrodes were placed subdermally over the vertex, the right mastoid and right hind leg of each animal. Tone-pips (5 msec duration presented at a rate of 21/s) at 8, 16 and 24 kHz were delivered to the right ear using a calibrated MF-1 speaker in closed-field configuration (Tucker-Davis Technologies, Alachua, FL, USA) at attenuating intensity until no reproducible response could be recorded. Close to the ABR threshold, the responses to 1000 acoustic stimuli in 5 dB steps were averaged. Responses were low-pass filtered at 3 kHz.
(§3) Animals were exposed to 121 dB octave band noise (8-16 kHz) for 2 h in groups of 4 rats, placed in individual compartments of a custom built circular cage placed on a 30 cm diameter platform rotating at 3 turns/minute (Aqila Innovation, Valbonne, France). The calibrated octave band noise generated by the RZ6 SigGen software was further amplified by a Crown D-75 amplifier in bridge mode (Crown Audio, Elkhart, IN, USA) and delivered by four Beyma CP16 compression tweeters (Acustica Beyma S. L., Moncada, Valencia, Spain) positioned 39 cm above the rotating platform, each 10 cm from the platform center.
(§4) Animals were treated by intraperitoneal injection daily for 14 days beginning immediately after acoustic trauma induction and subsequently repeated every 24 hours. The setron compounds granisetron HCl, ondansetron HCl, tropisetron HCl and azasetron HCl (Tocris Bioscience, Bristol, UK) were delivered dissolved in saline solution (1.6 mL/kg) while Tacrolimus (Selleck Chemicals, Houston, TX, USA) was dissolved in solution composed of 10% ethanol-100%/10% Kolliphor EL/1% Tween 80/79% saline (1.0 mL/kg). Placebo treated animals received injections of 1.6 mL/kg saline following the same treatment schedule.
(§5) Statistical analysis was performed using two-way ANOVA (Audiometry data: frequency and treatment group. Cochleograms: normalized distance from apex and treatment group) followed by Holm-Sidak post-hoc test for multiple comparisons. Results are given as mean±SEM and a p value less than or equal to 0.05 considered significant.
(§6) Baseline line audiometry (ABR and DPOAE measures) was performed for each animal 3 days before acoustic trauma was induced. Subsequently, audiometry measures were repeated 24 h and 14 days after acoustic trauma.
(§7) To quantify and compare the difference in treatment effects between groups while taking into account individual baseline and trauma variability, the hearing loss (ABR threshold shift & DPOAE amplitude loss) at D14 relative to baseline, as well as the functional recovery of hearing from 24 h to D14 (ABR threshold shift & DPOAE amplitude loss) were determined for all treatment groups.

[2] = system: acoustic trauma induced hearing loss; experiment: Distortion product otoacoustic emissions (DPOAE) amplitudes after acoustic trauma; assay type: in vivo, Wistar rats; settings: for DPOAE amplitude loss from baseline to day 14 compared to placebo / recovery of DPOAE amplitudes from 24 h post trauma to day 14 compared to placebo: i.p. daily for 14 days after acoustic trauma, same doses as E4
Description: as §1, §2
DPOAEs were recorded and using ER10B+ Low Noise DPOAE microphone (Etymotic Research, Inc., Elk Grove Village, IL, USA) with acoustic stimuli delivered by two calibrated MF-1 speakers in closed-field configuration (Tucker-Davis Technologies, Alachua, FL, USA). DPOAEs were recorded at fixed stimulus levels (L1=L2=70 dB SPL), with an f2/f1 ratio of 1.2. Responses were recorded at 4, 8, 16, 24 and 32 kHz.
as §3, §4, §5, §6, §7

outer hair cells = experiment: Outer hair cell loss (cytocochleograms) in cochleae fixed at D14 after acoustic trauma; assay type: in vivo, Wistar rats; settings: cochleae fixed after audiometry on day 14
Description: as §3, §4
After audiometry on day 14, animals were deeply anaesthetized with an intraperitoneal injection of pentobarbital (100 mg/kg). The cochleae were removed, fixed with 4% paraformaldehyde, pH 7.4, decalcified with 10% EDTA, pH 7.4 and then stained with myosin VIIa 1/1000. […] The mean loss of OHCs per group was subsequently calculated as a function of normalized distance from the apex in bins of 2.5% of the total length, using the total length of each histological specimen. Cell counts could reliably be obtained for up to 90% of the total distance from the apex (corresponding to the tonotopic region up to from 0 kHz to ~50 kHz in rat, Viberg & Canlon 2004), while the last 10% was too variable due to damage incurred during dissection.
as §5
To further support the conclusions from the functional audiometry data, the loss of outer hair cells in four treatment group was determined by constructing cytocochleograms from histological preparations of cochleae fixed after audiometry on day 14.

[3] = system: noise-induced hearing loss; settings: Uemaetomari et al. 2005; Bas et al. 2009; cited from earlier work
[4] = Animal deaths during 14-day repeated treatment in the acoustic trauma study; assay type: in vivo, Wistar rats; settings: Tacrolimus 1.5 mg/kg i.p. daily for 14 days
Description: as §1, §4, §6
FIGS. 2 & 3 illustrate the audiometry measures (ABR thresholds and DPOAE amplitudes) determined for all treatment groups at baseline, 24 h and 14 days after acoustic trauma. For ABR thresholds exceeding 90 dB, a maximal value of 95 dB was attributed. […]

[5] = day 14, i.p. daily for 14 days after acoustic trauma

## Cc1nccn1CC1CCc2c(c3ccccc3n2C)C1=O (stereo not drawn) [ondansetron HCl]
calcineurin
  effect on calcineurin phosphatase activity: significantly inhibited
  change of calcineurin inhibition with increasing concentration: decreased with increasing concentration
[1]; [5]
  reduction of ABR threshold shifts compared to placebo treatment: 10-30%
[1]
  hearing outcomes (ABR thresholds and DPOAE amplitudes) at 14 days after acoustic trauma compared to placebo: improvement at some frequencies
  ABR threshold shift from baseline to day 14 compared to placebo: lower ABR threshold shift
[2]; [5]
  reduction of DPOAE amplitudes loss compared to placebo treatment: 10-30%
[2]
  DPOAE amplitude loss from baseline to day 14 compared to placebo: trend towards reduced loss of DPOAE amplitude
  recovery of DPOAE amplitudes from 24 h post trauma to day 14 compared to placebo: improved recovery

## CN1C2CCCC1CC(NC(=O)c1nn(C)c3ccccc13)C2 (stereo not drawn) [granisetron HCl]
Outer hair cells
  mean loss of outer hair cells compared to placebo: Neither the granisetron HCl nor the tacrolimus treated groups were significantly different from placebo
Outer hair cells; listed as granisetron
  mean loss of outer hair cells compared to placebo: trend towards worse
calcineurin
  effect on calcineurin phosphatase activity: no effect
[1]
  ABR threshold recovery from 24 h to day 14 compared to placebo: decreased threshold recovery
  hearing outcomes (ABR thresholds and DPOAE amplitudes) at 14 days after acoustic trauma compared to placebo: worse ABR thresholds and DPOAE amplitudes
  ABR threshold shift from baseline to day 14 compared to placebo: strong trends towards higher ABR threshold shifts
[2]
  DPOAE amplitude loss from baseline to day 14 compared to placebo: trend towards increased DPOAE amplitude loss
  recovery of DPOAE amplitudes from 24 h post trauma to day 14 compared to placebo: reduced recovery
[2]; listed as granisetron
  DPOAE amplitude loss from baseline to day 14 compared to placebo: trend towards worse DPOAE amplitudes

## CN1[C@@H]2CC[C@H]1C[C@@H](OC(=O)c1c[nH]c3ccccc13)C2 [tropisetron HCl]
Outer hair cells
  mean loss of outer hair cells compared to placebo: trend towards worse
calcineurin
  effect on calcineurin phosphatase activity: significantly inhibited
  change of calcineurin inhibition with increasing concentration: increased to different degree with increasing concentrations
[1]
  ABR threshold recovery from 24 h to day 14 compared to placebo: decreased threshold recovery
  hearing outcomes (ABR thresholds and DPOAE amplitudes) at 14 days after acoustic trauma compared to placebo: worse ABR thresholds and DPOAE amplitudes
  ABR threshold shift from baseline to day 14 compared to placebo: strong trends towards higher ABR threshold shifts
[2]
  DPOAE amplitude loss from baseline to day 14 compared to placebo: trend towards increased DPOAE amplitude loss
  recovery of DPOAE amplitudes from 24 h post trauma to day 14 compared to placebo: reduced recovery
[2]; listed as tropisetron
  DPOAE amplitude loss from baseline to day 14 compared to placebo: trend towards worse DPOAE amplitudes

## C=CC[C@@H]1/C=C(\C)C[C@H](C)C[C@H](OC)[C@H]2O[C@@](O)(C(=O)C(=O)N3CCCC[C@H]3C(=O)O[C@H](/C(C)=C/[C@@H]3CC[C@@H](O)[C@H](OC)C3)[C@H](C)[C@@H](O)CC1=O)[C@H](C)C[C@@H]2OC [tacrolimus]
Outer hair cells
  mean loss of outer hair cells compared to placebo: Neither the granisetron HCl nor the tacrolimus treated groups were significantly different from placebo
[1]
  hearing outcomes (ABR thresholds and DPOAE amplitudes) at 14 days after acoustic trauma compared to placebo: improvement at some frequencies
  ABR threshold shift from baseline to day 14 compared to placebo: no major effect
[3]
  effect on hearing loss in pre-clinical models of noise-induced hearing loss: reduce hearing loss
[4]
  animals that died between treatment initiation and end of the study: 5 animals out of 11
[2]
  DPOAE amplitude loss from baseline to day 14 compared to placebo: trend towards reduced loss of DPOAE amplitude; also recorded: trends towards improving DPOAE amplitude loss at some frequencies
  recovery of DPOAE amplitudes from 24 h post trauma to day 14 compared to placebo: improved recovery

## cyclosporine A
[3]
  effect on hearing loss in pre-clinical models of noise-induced hearing loss: reduce hearing loss

## Cn1cc(C(=O)[C@@H]2CCc3nc[nH]c3C2)c2ccccc21 [ramosetron HCl]
calcineurin
  effect on calcineurin phosphatase activity: significantly inhibited
  change of calcineurin inhibition with increasing concentration: increased to different degree with increasing concentrations

Source: US12702671B2, “Calcineurin inhibitors of the setron family for the treatment of hearing loss” (SENSORION, priority 2015, dated 2026)
